Literature values, collected in PubChem BioAssay AID1259409 (Chemical Carcinogenesis Research Information System (CCRIS), 2018).

System: rodent chemically induced tumor inhibition, incidence and multiplicity
Assay: CCRIS tumor inhibitor studies
Conditions: Carcinogen: N-METHYL-N-NITROSOUREA; 684-93-5; Dose [Inhibitor]: 0; 25 MG/KG/D IN DRINKING WATER FOR 12 MO BEGINNING 1 WK POST CARCINOGEN DOSE (STUDY DURATION: 12 MO); Route [Inhibitor]: ORAL; Species: RAT; Strain/Sex: LOBUND WISTAR/MALE; Target Tissue: Type of Lesion: SEMINAL VESICLE/PROSTATE: TUMOR; Dose [Carcinogen]: 30 MG/KG ONCE AT 90 D OF AGE; Promoter: TESTOSTERONE PROPIONATE; 57-85-2

For `CN(C(=O)c1c(O)c2ccccc2n(C)c1=O)c1ccccc1`, the “tumour outcome (control, treated, inhibition, significance)” value is listed as 90%, 40%, 56%, not calculated.
